Laboratory results published in PubChem BioAssay AID330 (DTP/NCI, 2004).
Where “and” joins values, the source holds several entries; their conditions need not be identical. Identical values can stand only once. Inconclusive results and toxic doses are left out.

Tested on: P388 leukemia ip, CD2F1 mice, survival T/C
Assay: NCI In Vivo Anticancer Drug Screen. Data for tumor model P388 Leukemia (intraperitoneal) in CD2F1 (CDF1) mice
Conditions: endpoint: median survival time, higher = longer survival
Summary of the method: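 Mice carrying the transplanted tumor received test compound or vehicle. Survival was recorded in each group, and the value is the treated-group measurement divided by that of the vehicle-treated control group.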

[1] = dose: 100.0 mg/kg/injection, schedule: Q01DX001 (ip), vehicle: saline with Tween-80
[2] = dose: 100.0 mg/kg/injection, schedule: Q04DX003 (ip), vehicle: saline with Tween-80
[3] = dose: 50.0 mg/kg/injection, schedule: Q01DX009 (ip), vehicle: Klucel (hydroxypropylcellulose) (HPC)
[4] = dose: 100.0 mg/kg/injection, schedule: Q01DX009 (ip), vehicle: Klucel (hydroxypropylcellulose) (HPC)

**Q.** `COC(=O)c1nc(=S)[nH]c(C(=O)OC)c1C(=O)c1cccc2ccccc12` was tested. Which T/C (dose: 60.0 mg/kg/injection, schedule: Q01DX005 (ip), vehicle: Klucel + Tween-80) did it give?
**A.** The T/C was 102 % of control.

**Q.** What about the T/C (dose: 120.0 mg/kg/injection, schedule: Q01DX005 (ip), vehicle: Klucel + Tween-80) of the same compound?
**A.** Its T/C is 95 % of control.

**Q.** And the T/C (dose: 240.0 mg/kg/injection, schedule: Q01DX005 (ip), vehicle: Klucel + Tween-80)?
**A.** The T/C was 92 % of control.

**Q.** With `O=NN(CCCl)C(=O)Oc1c(Cl)cc(Cl)cc1Cl` as the compound, how does the T/C (dose: 50.0 mg/kg/injection, schedule: Q01DX001 (ip), vehicle: saline with Tween-80) read?
**A.** The T/C was 163 % of control.

**Q.** What about the T/C (dose: 67.0 mg/kg/injection, schedule: Q01DX001 (ip), vehicle: saline with Tween-80) of the same compound?
**A.** The T/C was 99 % of control.

**Q.** And the T/C [1]?
**A.** Its T/C is 193 % of control.

**Q.** With `CC(C)CC(=O)CC(=O)C(C)(C)C.CC(C)CC(=O)CC(=O)C(C)(C)C.[Cu]` as the compound, how does the T/C (dose: 25.0 mg/kg/injection, schedule: Q04DX003 (ip), vehicle: Klucel (hydroxypropylcellulose) (HPC)) read?
**A.** Its T/C is 100 % of control.

**Q.** And the T/C (dose: 50.0 mg/kg/injection, schedule: Q04DX003 (ip), vehicle: Klucel (hydroxypropylcellulose) (HPC))?
**A.** The T/C was 101 % of control.

**Q.** And the T/C (dose: 100.0 mg/kg/injection, schedule: Q04DX003 (ip), vehicle: Klucel (hydroxypropylcellulose) (HPC))?
**A.** The T/C was 98 % of control and 106 % of control.

**Q.** How did the T/C (dose: 60.0 mg/kg/injection, schedule: Q01DX005 (ip), vehicle: saline + Tween-80 + alcohol) turn out when `COC1=C(OC)C(=O)C(SCCCCCCC2CCCCC2)=C(C)C1=O` was run?
**A.** Its T/C is 110 % of control.

**Q.** And the T/C (dose: 120.0 mg/kg/injection, schedule: Q01DX005 (ip), vehicle: saline + Tween-80 + alcohol)?
**A.** Its T/C is 115 % of control.

**Q.** Which results are given for `CC1=CC2OC3CC4OC(=O)/C=C/C=C/C(C(C)O)OCCC5(C)OC5C(=O)OCC2(CC1)C4(C)C31CO1` (stereo not given)?
**A.** T/C (dose: 1.25 mg/kg/injection, schedule: Q01DX005 (ip), vehicle: saline + alcohol): 101 % of control; T/C (dose: 2.5 mg/kg/injection, schedule: Q01DX005 (ip), vehicle: saline + alcohol): 118 % of control

**Q.** For `COc1ccc(/C=C2/SC(=S)N(C(C)C)C2=O)cc1OC`, which T/C (dose: 6.25 mg/kg/injection, schedule: Q01DX009 (ip), vehicle: saline with Tween-80) is on record?
**A.** The T/C was 88 % of control.

**Q.** And the T/C (dose: 12.5 mg/kg/injection, schedule: Q01DX009 (ip), vehicle: saline with Tween-80)?
**A.** The T/C was 90 % of control.

**Q.** And the T/C (dose: 25.0 mg/kg/injection, schedule: Q01DX009 (ip), vehicle: saline with Tween-80)?
**A.** Its T/C is 94 % of control.

**Q.** What about the T/C (dose: 50.0 mg/kg/injection, schedule: Q01DX009 (ip), vehicle: saline with Tween-80) of the same compound?
**A.** Its T/C is 88 % of control.

**Q.** With `Nc1cc(Nc2cccc(Cl)c2)nc(N)n1` as the compound, how does the T/C (dose: 50.0 mg/kg/injection, schedule: Q04DX003 (ip), vehicle: saline with Tween-80) read?
**A.** Its T/C is 87 % of control.

**Q.** What about the T/C [2] of the same compound?
**A.** Its T/C is 91 % of control.

**Q.** Which T/C (dose: 100.0 mg/kg/injection, schedule: Q04DX003 (ip), vehicle: suspension in saline) does the source give for `COc1ccc(C2CC(=O)N(CC(=O)O)C(=O)C2)cc1` here?
**A.** The T/C was 103 % of control.

**Q.** And the T/C (dose: 200.0 mg/kg/injection, schedule: Q04DX003 (ip), vehicle: suspension in saline)?
**A.** The T/C was 100 % of control.

**Q.** And the T/C (dose: 400.0 mg/kg/injection, schedule: Q04DX003 (ip), vehicle: suspension in saline)?
**A.** The T/C was 99 % of control.

**Q.** Which results are given for `CC(C)(C(=O)O)C(Nc1ncnc2c1ncn2C1OC(CO)C(O)C1O)C(=O)O` (stereo not given)?
**A.** T/C (dose: 100.0 mg/kg/injection, schedule: Q04DX003 (ip), vehicle: saline): 100 % of control; T/C (dose: 200.0 mg/kg/injection, schedule: Q04DX003 (ip), vehicle: saline): 106 % of control

**Q.** Which T/C [3] does the source give for `NC(=O)c1nn[nH]n1` here?
**A.** The T/C was 97 % of control.

**Q.** What about the T/C [4] of the same compound?
**A.** The T/C was 100 % of control.

**Q.** Which results are given for `Cc1ccccc1C1N(Cc2ccccc2)C(=S)C1(C(C)C)C(C)(C)C` (stereo not given)?
**A.** T/C [1]: 102 % of control; T/C (dose: 200.0 mg/kg/injection, schedule: Q01DX001 (ip), vehicle: saline with Tween-80): 92 % of control; T/C (dose: 400.0 mg/kg/injection, schedule: Q01DX001 (ip), vehicle: saline with Tween-80): 94 % of control

**Q.** Which results are given for `CCOC(OCC)c1ccc(-n2c(N)c(C#N)cnc2=S)c2c1OC2=NC=C(C#N)C#N`?
**A.** T/C (dose: 50.0 mg/kg/injection, schedule: Q01DX009 (ip), vehicle: saline): 112 % of control; T/C (dose: 100.0 mg/kg/injection, schedule: Q01DX009 (ip), vehicle: saline): 102 % of control; T/C (dose: 200.0 mg/kg/injection, schedule: Q01DX009 (ip), vehicle: saline): 100 % of control

**Q.** `CN(C)C(C#N)C(=O)c1ccccc1` (stereo not given) was tested. Which T/C (dose: 25.0 mg/kg/injection, schedule: Q01DX009 (ip), vehicle: Klucel (hydroxypropylcellulose) (HPC)) did it give?
**A.** Its T/C is 107 % of control.

**Q.** What about the T/C [3] of the same compound?
**A.** The T/C was 110 % of control.

**Q.** What about the T/C [4] of the same compound?
**A.** Its T/C is 104 % of control.

**Q.** Which T/C [2] does the source give for `CCCCCC(O)CCCCC` here?
**A.** The T/C was 100 % of control.

**Q.** What about the T/C (dose: 200.0 mg/kg/injection, schedule: Q04DX003 (ip), vehicle: saline with Tween-80) of the same compound?
**A.** Its T/C is 109 % of control.

**Q.** What about the T/C (dose: 400.0 mg/kg/injection, schedule: Q04DX003 (ip), vehicle: saline with Tween-80) of the same compound?
**A.** Its T/C is 100 % of control.

**Q.** Which results are given for `O=c1c2ccccc2n(-c2ccccc2)c2ccc(Cl)cc12`?
**A.** T/C (dose: 50.0 mg/kg/injection, schedule: Q01DX005 (ip), vehicle: saline with Tween-80): 86 % of control; T/C (dose: 100.0 mg/kg/injection, schedule: Q01DX005 (ip), vehicle: saline with Tween-80): 90 % of control
